From patent US7799811B2, “Agent for prevention and treatment of cancer comprising oxadiazole urea compound obstructing activity of stat” (Korea Research Institute of Bioscience and Biotechnology, priority 2006, dated 2010)

How the values were obtained:
solubility in solvents = assay type: physicochemical
[1] = system: colorectal carcinoma HCT116 cells; test: WST-1 growth inhibition assay, HCT116; assay type: cell-based; details: Homo sapiens, HCT-116, 24 hrs
Method: (§1) The oxadiazole urea compound of the present invention was estimated for growth inhibitory activity against other human cancer cell lines in a WST-1 assay.
(§2) Human cancer cell lines were cultured in 10% fetal bovine serum (FBS)-containing medium at 37[…] under 5% CO2, and detached using 0.05% trypsin-EDTA. Cells were seeded onto a 96-well plate at a density of 5×10^3 cells per well (for MDA-MB-231 and MDA-MB-468 breast cancer cells) or at a density of 7×10^3 cells per well (for colorectal carcinoma HCT116 and colon cancer SW620 cells).
(§3) Then, cells were cultured in 10% FBS containing medium in an incubator at 37[…] under 5% CO2. After 24 hrs, the medium was exchanged with a medium containing 0.1% DMSO (as a control), or with media containing the oxadiazole urea compound at various concentrations (the compound dissolved in DMSO was diluted in medium), and cells were further cultured for 24 hrs. 10 μl of WST-1 Reagent (Roche) was added to each well, and the plate was incubated for 2 hrs. Absorbance was measured at 450 nm using an ELISA reader (Bio-Rad).

[2] = system: MDA-MB-231 breast cancer cells; test: WST-1 growth inhibition assay, MDA-MB-231; assay type: cell-based, human; details: MDA-MB-231 cells, 24 hrs
Method: as §1, §2, §3

[3] = system: MDA-MB-468 breast cancer cells; test: WST-1 growth inhibition assay, MDA-MB-468; assay type: cell-based; details: Homo sapiens, MDA-MB-468 cells, 24 hrs
Method: as §1, §2, §3

STAT3 = target: T1, STAT3 (Homo sapiens, UniProt P40763); test: dual luciferase assay for STAT3 inhibitory activity in transfected HCT116 cells; assay type: cell-based; details: HCT116 cells transfected with STAT3-dependent firefly luciferase; 12 hrs or 24 hrs; read-out: concentration inhibiting 50% of STAT3 activity
T1 construct: Colorectal carcinoma HCT116 cells were co-transfected with a plasmid carrying firefly luciferase, whose expression increases with STAT3 activity; endogenous in cells; host or cells: HCT116 human colorectal carcinoma cells
Method: A dual luciferase assay was performed to determine whether the oxadiazole urea compound of the present invention has inhibitory activity against STAT3.
Colorectal carcinoma HCT116 cells were co-transfected with a plasmid carrying firefly luciferase, whose expression increases with STAT3 activity, and another plasmid carrying renilla luciferase, which is expressed independently of STAT3 activity. The transfected HCT116 cells were detached using 0.05% trypsin EDTA and seeded onto a 96-well test plate at a density of 1×10^4 cells per well. Cells were cultured in an incubator at 37[…] under 5% CO2 for 3 hrs, and then incubated with DMSO (1%) alone as a control and with the oxadiazole urea compound (dissolved in DMSO) at various concentrations (diluted 1/100).
After 12 hrs or 24 hrs, STAT activity was assayed by adding two different substrates for firefly luciferase and renilla luciferase, beetle luciferin and coelenterazine, to the medium. The luminescence intensity by substrate degradation was measured using a luminometer (Wallac 1420). The measured firefly luciferase activity reflected STAT3 activity in a proportional manner. Renilla luciferase was used to calibrate non-specific cytotoxicity, occurring in each test group, and internal deviation.

SD rats = test: acute toxicity test on oral application in rats; assay type: in vivo; details: single oral dose of 1 g/kg/ml
Method: An acute toxicity test was conducted with 6-week-old specific pathogen-free (SPF) SD rats. The present compound was suspended in injectable distilled water, and orally administered to two SD rats per group at a single dose of 1 g/kg/ml. […] After autopsy, abnormalities of abdominal and thoracic organs were visually observed.

colon cancer SW620 cells = test: WST-1 growth inhibition assay, SW620; assay type: cell-based; details: Homo sapiens, SW-620, 24 hrs
Method: as §1, §2, §3

T1 sequence (P40763 whole entry): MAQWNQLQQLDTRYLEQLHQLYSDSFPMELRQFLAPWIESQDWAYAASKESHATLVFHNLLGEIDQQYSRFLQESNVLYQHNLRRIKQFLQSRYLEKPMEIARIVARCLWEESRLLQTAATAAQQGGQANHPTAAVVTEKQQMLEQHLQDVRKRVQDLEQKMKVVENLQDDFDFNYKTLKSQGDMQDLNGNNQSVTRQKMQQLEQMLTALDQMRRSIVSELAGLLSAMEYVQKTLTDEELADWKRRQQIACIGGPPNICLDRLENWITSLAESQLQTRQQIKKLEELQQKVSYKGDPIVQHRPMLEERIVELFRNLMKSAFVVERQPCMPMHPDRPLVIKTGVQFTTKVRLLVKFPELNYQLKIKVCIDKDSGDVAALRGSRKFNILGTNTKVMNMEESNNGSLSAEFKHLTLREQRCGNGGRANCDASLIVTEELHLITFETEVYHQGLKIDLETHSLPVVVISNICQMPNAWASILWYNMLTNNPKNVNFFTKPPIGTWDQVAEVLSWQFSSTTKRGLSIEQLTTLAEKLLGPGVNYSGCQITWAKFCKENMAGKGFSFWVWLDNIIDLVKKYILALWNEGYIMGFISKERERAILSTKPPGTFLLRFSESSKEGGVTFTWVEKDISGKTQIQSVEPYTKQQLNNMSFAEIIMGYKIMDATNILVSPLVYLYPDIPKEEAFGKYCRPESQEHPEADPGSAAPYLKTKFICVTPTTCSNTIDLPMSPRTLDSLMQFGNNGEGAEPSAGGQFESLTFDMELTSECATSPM

**Q.** With `O=C(Nc1ccc(C(F)(F)F)cc1)Nc1nonc1-c1ccc(Cl)cc1` [compound of Chemical Formula 1] as the compound, how does the “solubility in a nonpolar solvent” value (solubility in solvents; nonpolar solvent, such as hexane) read?
**A.** Its value is “not dissolved”.

**Q.** And the “solubility in a polar solvent” value (solubility in solvents; polar solvent, such as DMSO)?
**A.** Its value is “well dissolved”.

**Q.** And the GI50 [1]?
**A.** The GI50 was 15 µM.

**Q.** And the “50% growth inhibition concentration” value [2]?
**A.** The value was no less than 100 μm.

**Q.** And the GI50 [3]?
**A.** Its GI50 is 40 µM.

**Q.** And the IC50 (STAT3)?
**A.** The IC50 was 2.5 to 3 µM.

**Q.** And the clinical symptoms (SD rats)?
**A.** Its clinical symptoms is “no special clinical symptoms”.

**Q.** What about the GI50 (colon cancer SW620 cells) of the same compound?
**A.** Its GI50 is 70 µM.
